In patent US7572797B2, “Amino substituted pyrazine derivatives for the treatment of pain” (Pfizer Inc., priority 2005, dated 2009):
Read-outs that look alike come from different tables or passages of the source.

Key:
[1] = biological target: T1, Human Nav1.8 (Homo sapiens, UniProt Q9Y5Y9); experiment: VIPR assay for Nav1.8 (FRET membrane potential, deltamethrin as opener); assay type: cell-based; details: for IC50: HEK293 cells expressing human Nav1.8, average of replicates; for Selectivity Ratio: TTX-S IC50 / NaV1.8 IC50
T1 construct: expressed in transfected cells
T1 sequence (Q9Y5Y9 whole entry): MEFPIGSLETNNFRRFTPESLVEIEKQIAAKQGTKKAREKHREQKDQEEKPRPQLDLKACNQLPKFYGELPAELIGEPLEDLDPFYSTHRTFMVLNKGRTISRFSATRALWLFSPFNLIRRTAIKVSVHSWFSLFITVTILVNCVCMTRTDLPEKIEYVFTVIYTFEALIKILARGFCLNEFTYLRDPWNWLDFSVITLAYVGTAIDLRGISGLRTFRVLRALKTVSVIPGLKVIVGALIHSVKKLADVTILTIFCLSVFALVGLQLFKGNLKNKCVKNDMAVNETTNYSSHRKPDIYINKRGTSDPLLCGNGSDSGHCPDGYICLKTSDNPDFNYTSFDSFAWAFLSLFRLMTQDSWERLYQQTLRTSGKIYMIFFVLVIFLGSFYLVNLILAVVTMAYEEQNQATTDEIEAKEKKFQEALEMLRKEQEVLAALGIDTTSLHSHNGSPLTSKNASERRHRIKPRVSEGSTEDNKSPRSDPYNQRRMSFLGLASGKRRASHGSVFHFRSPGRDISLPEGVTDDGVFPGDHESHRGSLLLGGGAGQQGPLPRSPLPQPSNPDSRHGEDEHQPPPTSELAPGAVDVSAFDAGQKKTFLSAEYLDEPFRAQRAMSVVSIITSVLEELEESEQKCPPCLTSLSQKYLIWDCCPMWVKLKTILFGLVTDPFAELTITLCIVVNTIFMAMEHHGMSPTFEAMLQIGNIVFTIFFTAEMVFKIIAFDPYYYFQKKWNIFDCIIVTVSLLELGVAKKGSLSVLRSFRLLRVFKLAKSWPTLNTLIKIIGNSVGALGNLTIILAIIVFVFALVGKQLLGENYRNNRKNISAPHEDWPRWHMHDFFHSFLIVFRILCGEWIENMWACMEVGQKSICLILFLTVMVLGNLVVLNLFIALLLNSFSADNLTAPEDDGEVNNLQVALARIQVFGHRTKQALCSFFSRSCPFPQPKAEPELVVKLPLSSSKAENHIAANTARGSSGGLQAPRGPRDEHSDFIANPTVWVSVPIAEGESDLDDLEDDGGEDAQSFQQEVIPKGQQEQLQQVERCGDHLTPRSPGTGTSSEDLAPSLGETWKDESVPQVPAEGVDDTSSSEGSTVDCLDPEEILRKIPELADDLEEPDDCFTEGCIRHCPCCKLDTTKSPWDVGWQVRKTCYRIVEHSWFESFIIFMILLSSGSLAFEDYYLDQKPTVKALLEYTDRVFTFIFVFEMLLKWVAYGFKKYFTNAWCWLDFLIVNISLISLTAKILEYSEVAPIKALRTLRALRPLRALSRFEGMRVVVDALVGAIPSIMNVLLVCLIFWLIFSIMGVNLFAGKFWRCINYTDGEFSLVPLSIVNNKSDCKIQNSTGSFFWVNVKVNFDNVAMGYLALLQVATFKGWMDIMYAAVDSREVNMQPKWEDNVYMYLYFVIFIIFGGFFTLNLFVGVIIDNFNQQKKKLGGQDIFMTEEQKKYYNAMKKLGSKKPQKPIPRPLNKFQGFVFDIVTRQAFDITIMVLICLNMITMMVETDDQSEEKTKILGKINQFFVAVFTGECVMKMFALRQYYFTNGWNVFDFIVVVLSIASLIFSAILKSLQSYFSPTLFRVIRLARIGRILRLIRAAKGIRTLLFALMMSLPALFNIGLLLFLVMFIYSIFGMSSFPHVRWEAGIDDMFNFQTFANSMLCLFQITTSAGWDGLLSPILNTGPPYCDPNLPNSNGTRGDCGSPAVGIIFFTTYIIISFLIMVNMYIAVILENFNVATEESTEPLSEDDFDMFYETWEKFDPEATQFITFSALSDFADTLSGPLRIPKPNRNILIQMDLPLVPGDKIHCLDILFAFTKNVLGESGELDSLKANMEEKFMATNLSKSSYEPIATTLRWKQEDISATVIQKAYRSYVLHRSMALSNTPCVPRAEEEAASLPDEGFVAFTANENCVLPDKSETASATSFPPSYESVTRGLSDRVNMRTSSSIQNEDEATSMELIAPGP

[2] = test system: tetrodotoxin-sensitive voltage-gated sodium channels including NaV1.2, NaV1.3 and NaV1.7 (SHSY-5Y cell line); experiment: TTX-S assay in SHSY-5Y cell line (VIPR procedure, veratridine as opener); assay type: cell-based; details: read-out: TTX-S IC50, SHSY-5Y cells, veratridine 50 μM, average of replicates
[3] = automated dissolution procedure

| SMILES | IC50 [1, 3] [µM] | Selectivity Ratio [1, 3] | IC50 [2, 3] [µM] | IC50 ([1]; manual dissolution procedure) [µM] | Selectivity Ratio ([1]; manual dissolution procedure) | IC50 ([2]; manual dissolution procedure) [µM] |
| --- | --- | --- | --- | --- | --- | --- |
| COc1ccc(Cl)c(-c2ncc(NC(=O)c3ccno3)nc2N)c1 [Example 32, N-[6-amino-5-(2-chloro-5-methoxyphenyl)pyrazin-2-yl]isoxazole-5-carboxamide] | 6.12 | >4.93 | > 30.2 | – | – | – |
| Cc1oncc1C(=O)Nc1cnc(-c2cc(Cl)cc3c2OCCO3)c(N)n1 [Example 39, N-[6-amino-5-(7-chloro-2,3-dihydro-1,4-benzodioxin-5-yl)pyrazin-2-yl]-5-methylisoxazole-4-carboxamide] | 5.45 | >3.25 | > 17.7 | – | – | – |
| Cn1nccc1C(=O)Nc1cnc(-c2cc(Cl)ccc2Cl)c(N)n1 [Example 7, N-[6-amino-5-(2,5-dichlorophenyl)pyrazin-2-yl]-1-methyl-1H-pyrazole-5-carboxamide] | 3.8 | 5.40 | 20.5 | 3.98 | 3.79 | 15.1 |
| CCCc1oncc1C(=O)Nc1cnc(-c2cc(OC)ccc2Cl)c(N)n1 [Example 38, N-[6-amino-5-(2-chloro-5-methoxyphenyl)pyrazin-2-yl]-5-propylisoxazole-4-carboxamide] | > 30.2 | – | > 30.4 | – | – | – |
| COc1ccc(Cl)c(-c2ncc(NC(=O)c3nonc3C)nc2N)c1 [Example 29, N-[6-amino-5-(2-chloro-5-methoxyphenyl)pyrazin-2-yl]-4-methyl-1,2,5-oxadiazole-3-carboxamide] | 7.97 | >3.69 | > 29.4 | – | – | – |
| Cc1nonc1C(=O)Nc1cnc(-c2cccc3ccccc23)c(N)n1 [Example 44, N-[6-amino-5-(1-naphthyl)pyrazin-2-yl]-4-methyl-1,2,5-oxadiazole-3-carboxamide] | 16.5 | >1.67 | > 27.4 | – | – | – |
| COc1cc(Cl)cc(-c2ncc(NC(=O)c3ccnn3C)nc2N)c1Cl [Example 6, N-[6-amino-5-(2,5-dichloro-3-methoxyphenyl)pyrazin-2-yl]-1-methyl-1H-pyrazole-5-carboxamide] | 4.71 | >4.25 | > 20 | – | – | – |
| Cc1nonc1C(=O)Nc1cnc(-c2cc(Cl)cc3c2OCCO3)c(N)n1 [Example 41, N-[6-amino-5-(7-chloro-2,3-dihydro-14-benzodioxin-5-yl)pyrazin-2-yl]-4-methyl-1,2,5-oxadiazole-3-carboxamide] | 12.7 | >2.22 | > 28.2 | – | – | – |
| Cc1nocc1C(=O)Nc1cnc(-c2cccc(Cl)c2Cl)c(N)n1 [Example 17, N-[6-amino-5-(2,3-dichlorophenyl)pyrazin-2-yl]-3-methylisoxazole-4-carboxamide] | 0.425 | 29.4 | 12.5 | – | – | – |
| Cc1nonc1C(=O)Nc1cnc(-c2cccc(Cl)c2Cl)c(N)n1 [Example 59, N-[6-amino-5-(2,3-dichlorophenyl)pyrazin-2-yl]-4-methyl-1,2,5-oxadiazole-3-carboxamide] | 7.23 | >3.58 | > 25.9 | – | – | – |
| Nc1nc(NC(=O)c2ccon2)cnc1-c1cc(Cl)cc2c1OCCO2 [Example 43, N-[6-amino-5-(7-chloro-2,3-dihydro-1,4-benzodioxin-5-yl)pyrazin-2-yl]isoxazole-3-carboxamide] | > 21.1 | ->1.43 | > 30.1 | – | – | – |
| Cn1nccc1C(=O)Nc1cnc(-c2cc(C#N)ccc2Cl)c(N)n1 [Example 11, N-[6-amino-5-(2-chloro-5-cyanophenyl)pyrazin-2-yl]-1-methyl-1H-pyrazole-5-carboxamide] | 4.47 | >6.76 | > 30.2 | – | – | – |
| Cc1nocc1C(=O)Nc1cnc(-c2cc(Cl)cc3c2OCCO3)c(N)n1 [Example 21, N-[6-amino-5-(7-chloro-2,3-dihydro-1,4-benzodioxin-5-yl)pyrazin-2-yl]-3-methylisoxazole-4-carboxamide] | 4.81 | 4.35 | 20.9 | – | – | – |
